In patent US12115161B2, “Prophylactic and/or therapeutic agent for inflammatory diseases which contains pyrrolopyrimidine compound as active ingredient” (KEIO UNIVERSITY, priority 2018, dated 2024):

What was measured:
MRL/lpr mice [1] = test: Anti-dsDNA antibody titer in blood of MRL/lpr mice (Example 6); type: in vivo
From the text: MRL/lpr mice (purchased from Charles River Laboratories Japan, Inc.) were used as disease model (may also be referred to as collagen disease model or systemic lupus erythematosus (SLE) model) mice developing inflammatory diseases at a high rate and developing multiple autoimmune phenomena. Approximately 80% or more of the MRL/lpr mice develop systemic vasculitis around four to five months old. In addition, it is also known that the same individual spontaneously develops, not only vasculitis, but also glomerulonephritis, arthritis, sialadenitis, and the like (J. Jpn. Coll. Angiol., 2009, 49 11-16.).
Experiments were performed as follows: • Group 1: administered a physiological saline solution only (saline); • Group 2: administered 0.04 mg/kg of Compound A; • Group 3: administered 0.2 mg/kg of Compound A; • Group 4: administered 1 mg/kg of Compound A. […]
The blood was collected over time (0 w, 4 w, 8 w, 12 w, and 16 w) measure the anti-dsDNA antibody titers in the blood. The anti-dsDNA antibody is a kind of antinuclear antibody and is known to be frequently and specifically detected in the serum of SLE patients.
The anti-dsDNA antibody titers in the blood were measured with “LBIS™ anti-dsDNA mice ELISA KIT” (AKRDO-061, produced by Fujifilm Corp.). […]

[2] = tested on: human peripheral blood monocytes; test: IL-6 production inhibitory effect of BAFF from human peripheral blood monocytes (Example 3); type: cell-based
Description: Monocytes were isolated from normal healthy human peripheral blood using CD14-microbeads. In the presence of 2 μg/mL recombinant human BAFF (same as Example 2) and Compound A (2 μM and 10 μM) (entire culture scale of 24-well culture plates at 2 mL/well), 5×10^5 of the isolated monocytes were cultured using a 10% FBS/RPMI 1640 culture medium in a 5% CO2 environment at 37° C. for four days. Four days later, the supernatant was removed to determine the IL-6 content in the culture supernatant by IL-6 specific ELISA. For comparison, experiments using BIK-13 instead of Compound A were also performed.

[3] = tested on: human monocytic cell line THP-1; test: IL-6 production inhibitory effect of BAFF in IFNγ-precultured THP-1 cells (Example 2); type: cell-based
Description: In 24-well plates (manufactured by Corning Inc.) in a RPMI-1640 culture medium (produced by ATCC) containing 10% fetal bovine serum (produced by JRH Biosciences), 5×10^5 cells of human monocytic leukemia cell line THP-1 (obtained from a bioresource bank, Japanese Collection of Research Bioresource) were seeded per well. IFNγ (interferon γ, produced by BD Pharmingen) was added to a final concentration of 200 ng/mL and cultured in a 5% CO2 environment at 37° C. After four days of culture, the culture broth in each well was removed and the cells were washed twice with the culture medium, followed by addition of the culture medium containing a final concentration of 2 μg/mL of recombinant human soluble BAFF (produced by Chemicon), and respective test compounds were added to a final concentration of 20 μM or 2 μM to continue the culture in the same conditions. After three days of culture, the culture supernatant was collected to determine the IL-6 content in the supernatant by ELISA. For ELISA, mouse anti-human IL-6 antibody (produced by BD Pharmingen), biotin-labeled anti-human IL-6 antibody (produced by BD Pharmingen), and HRP-labeled streptavidin (produced by BD Pharmingen) were used. The test compound groups were used by purchasing from Asinex. In the test system, Compound 27 (BIK-13) in PTL 1 was used as a positive control (compound with inhibitory action on IL-6 production by monocytic cells). BIK-13 was the same as the compound of ADM 12880656 by Asinex Japan Inc.
In the presence of 200 ng/mL recombinant human IFNγ (same as Example 1) (entire culture scale of 24-well culture plates at 2 mL/well), 5×10^5 cells of human monocytic cell line THP-1 (same as Example 1) were cultured using a 10% FBS/RPMI 1640 culture medium in a 5% CO2 environment at 37° C. for four days (96 hours). Four days later, an operation of removing the supernatant, adding a new medium, leaving it still in an incubator, and removing the supernatant was repeated twice. After removing the supernatant, recombinant human BAFF (2 μg/mL) was dissolved together with Compound A (ADM 12880492, Asinex Japan Inc.) or Compound B (ADM 12880696, Asinex Japan Inc.) in a medium and added to the culture wells to be cultured for three days. Three days later, the culture supernatant was collected to determine the IL-6 content in the culture supernatant by IL-6 specific ELISA. As a control, instead of Compound A or Compound B, BIK-13 was used.

MRL/lpr mice [4] = test: Tissue lesion (lymphocytic infiltration, HE staining) in MRL/lpr mice (Example 9); type: in vivo; conditions: 0.04, 0.2, 1 mg/kg for 16 weeks
Description: Present Example was performed simultaneously with Example 6 using MRL/lpr mice. Except for the following exceptions, present Example was performed by the same materials and method as Example 6 above.
After administration in the 16th week, 25-week-old mice were dissected and tissues (lacrimal glands, submandibular glands, and kidneys) were removed. After the removed tissues were rapidly frozen and embedded using O.C.T. compound (Sakura Finetek Japan Co., Ltd.), the frozen tissues were thin sectioned with a cryostat (LEICA CM 1920) and applied on glass slides. After the sections on the glass slides were dried, the tissues were stained by hematoxylin-eosin staining to be observed with a microscope. The hematoxylin-eosin staining was performed in the following procedure: • 1) fixation and washing with an ethanol-formalin-acetic acid fixative; • 2) adding New Hematoxylin solution Type G (Muto Pure Chemicals Co., Ltd.), followed by washing; • 3) adding New Eosin solution Type A (Muto Pure Chemicals Co., Ltd.); • 4) adding 80% ethanol; • 5) adding xylene; and • 6) mounted with Marinol (Muto Pure Chemicals Co., Ltd.) for observation.

Cc1c(C)n(Cc2ccccc2)c2ncnc(OC3CCN(CC(=O)NCC4CC4)CC3)c12 [Compound A, 2-[4-{(7-benzyl-5,6-dimethyl-7H-pyrrolo[2,3-d]pyrimidin-4-yl)oxy}piperidin-1-yl]-N(cyclopropylmethyl)acetamide]
anti-dsDNA antibody titer inhibitory effect compared with saline (MRL/lpr mice [1]; 0.2 mg/kg and 1 mg/kg, 16th week): significant (respectively, p<0.05) anti-dsDNA antibody titer inhibitory effects
anti-dsDNA antibody titers in the blood compared with saline (MRL/lpr mice [1]; 0.04, 0.2 and 1 mg/kg, intravenous injection five times a week, 8 w or later): tendency of decrease
IL-6 production inhibitory effect compared with the control ([2]; 2 μM and 10 μM with 2 μg/mL human BAFF, 4 days): significant (p<0.001) IL-6 production inhibitory effects
relative amount of IL-6 production ([2]; 2 μM, control = 100%): 66.4±0.283%
IL-6 production inhibitory effect, times stronger than BIK-13 ([2]; monocytes of normal healthy individuals): at least 5 times
IL-6 production inhibitory effect compared with the control ([3]; 0.04 μM, 0.2 μM and 1 μM together with 2 μg/mL human BAFF, 3 days, ELISA): significant (p<0.001) IL-6 production inhibitory effects
relative amount of IL-6 production ([3]; 0.04 μM, control (BAFF only) = 100%): 25±1.42%
IL-6 production inhibitory effect, times stronger than BIK-13 ([3]; THP-1 system of Example 2): at least 750 times
lymphocytic infiltration areas in kidney tissues compared with saline (MRL/lpr mice [4]): reduced
lymphocytic infiltration areas in lacrimal gland tissues compared with saline (MRL/lpr mice [4]): clearly reduced
lymphocytic infiltration areas in submandibular gland tissues compared with saline (MRL/lpr mice [4]): reduced
